This is an account of results in patent US4173647A, “4-Spectinomycylamine and salts thereof” (Boehringer Ingelheim GmbH, priority 1977, dated 1979).

Assay [1] is described as follows: antimicrobial activity (general statement, in vitro and in warm-blooded animals such as mice).
For assay [2], the system named is Serratia marcescens ATCC 13 880. The assay is described as follows: series-dilution assay in the microtiter system, bacteriostasis. Format: cell-based. The conditions noted are these: ATCC13, pH 6.7, read-out: Minimum inhibiting concentration. As for the experimental part: (§1) 4-R-Spectinomycylamine of the formula I was tested in comparison with the known antibiotic spectinomycin with regard to its effectiveness against Staphylococcus aureus SG 511, Streptococcus aronson, Escherichia coli ATCC 9637, Pseudomonas aeruginosa, Serratia marcescens ATCC 13 880, Klebsiella pneumoniae ATCC 10 031, Proteus mirabilis and Proteus vulgaris, and with regard to acute toxicity.
(§2) For these tests the method of the series-dilution essay in the microtiter system was used. The substances were tested in a fluid medium with regard to bacteriostasis. The effectiveness of the bacteriostasis was tested at the following concentrations: 80, 40, 20, 10, 5, 2.5, 1.25, 0.6 and 0.3 μgm/ml. A bouillon consisting of 5 gm of peptone, 3 gm of meat extract, filled up to a volume of 1000 ml with distilled water served as nutriant; pH-value 6.7. The age of the primary cultures was 24 hours. The adjustment of the microorganism suspension was carried out with a photometer (according to Eppendorf) (diameter of the test tube 14 mm, filter 546 nm) by comparison with the turbidity of a barium sulfate comparison suspension produced by a suspension of barium sulfate which was prepared by addition of 3.0 ml of 1% barium chloride solution on 97 ml of 1% sulfuric acid. After the adjustment streptococcus aronson was diluted 1:150 and the remaining test microorganisms were further diluted with sodium chloride solution in the proportion of 1:1500.
(§3) 16 mgm of the test substance was weighed in 10 ml measuring flasks and filled up with the solvent until the mark was reached. The further dilution series was prepared with distilled water or with the respective solvent.
(§4) 0.2 ml of nutrient medium, 0.01 ml of the corresponding test substance dilution and 1 drop of the microorganism suspension were placed into the cavities of the microtiter plates and incubated for 18 to 20 hours at 37° C. A solvent control batch was always treated in like manner at the same time.
(§5) The reading was effected macroscopically, whereby the respective threshold concentration (=lowest still bacteriostatically effective concentration) was determined.

For assay [3], the system named is Escherichia coli ATCC 9637. The assay is described as above. Format: cell-based. The conditions noted are these: ATCC9637, pH 6.7, read-out: Minimum inhibiting concentration. As for the experimental part: as §1, §2, §3, §4, §5
In another assay the test system is Streptococcus aronson. The assay is described as above. Format: cell-based. As to conditions: 18 to 20 hours at 37° C., pH 6.7, lowest still bacteriostatically effective concentration, read-out: Minimum inhibiting concentration. As for the experimental part:
as §1, §2, §3, §4, §5

Assay [4] has as its system Staphylococcus aureus SG 511. The description is as above. The conditions noted are these: SG511, 18 to 20 hours at 37° C., pH 6.7, lowest still bacteriostatically effective concentration, read-out: Minimum inhibiting concentration. The class given is cell-based. The procedure:
as §1, §2, §3, §4, §5

Another assay has as its system Pseudomonas aeruginosa. Described as above. As to conditions: pH 6.7, read-out: Minimum inhibiting concentration. Format: cell-based. The procedure: as §1, §2, §3, §4, §5
The test system of assay [5] is Klebsiella pneumoniae ATCC 10 031. The description is as above. The class given is cell-based. As to conditions: ATCC10, 18 to 20 hours at 37° C., pH 6.7, lowest still bacteriostatically effective concentration, read-out: Minimum inhibiting concentration. The procedure: as §1, §2, §3, §4, §5
The subject of the next assay is Proteus vulgaris. The assay is described as above. The class given is cell-based. The conditions noted are these: 18 to 20 hours at 37° C., pH 6.7, lowest still bacteriostatically effective concentration, read-out: Minimum inhibiting concentration. The procedure: as §1, §2, §3, §4, §5
For the next assay, the system named is Proteus mirabilis. Described as above. The class given is cell-based. As to conditions: 18 to 20 hours at 37° C., pH 6.7, lowest still bacteriostatically effective concentration, read-out: Minimum inhibiting concentration. The procedure:
as §1, §2, §3, §4, §5

Converted amounts (≈) assume the structure as drawn.

On to `CNC1C(O)C(NC)C2OC3(O)C(N)CC(C)OC3OC2C1O` (centres unmarked) [4-R-Spectinomycylamine], for which the “antimicrobial properties (in words)” value in assay [1] was “especially pronounced”. Moreover, the MIC came to 10 µg/mL (≈ 30 µM) in [2]; 20 µg/mL (≈ 60 µM) in [3]; 5 µg/mL (≈ 15 µM) with Streptococcus aronson; 5 µg/mL (≈ 15 µM) in [4]; 40 µg/mL (≈ 120 µM) in the assay on Pseudomonas aeruginosa; 10 µg/mL (≈ 30 µM) in assay [5]. Also, the results for the MIC with Proteus vulgaris and with Proteus mirabilis were 5 µg/mL (≈ 15 µM) and 10 µg/mL (≈ 30 µM), respectively.

For `CN[C@@H]1[C@H](O)[C@H](NC)[C@H]2O[C@@]3(O)C(=O)C[C@@H](C)O[C@H]3O[C@@H]2[C@H]1O` [Spectinomycin, spectinomycin, reference compound], the MIC was 20 µg/mL (≈ 60.2 µM) in assay [2]; 40 µg/mL (≈ 120 µM) in [3]; 10 µg/mL (≈ 30.1 µM) in the assay with Streptococcus aronson; 20 µg/mL (≈ 60.2 µM) in assay [4]; 160 µg/mL (≈ 481 µM) with Pseudomonas aeruginosa; 20 µg/mL (≈ 60.2 µM) in assay [5]. The MIC in the assay on Proteus vulgaris and in the assay with Proteus mirabilis was 10 µg/mL (≈ 30.1 µM) throughout.
